Source: patent US20070269513A1, “Liver selective drug therapy” (priority 1999, published 2007)
“And” between values parts separate entries of the source, which are not always exact repeats. Identical values can stand only once.

Tests used:
[1] = review as at 18 Nov. 2004; cited from earlier work
[2] = FDA MEDWATCH, in words; cited from earlier work
[3] = Kinetic study of slow-release propranolol granules given by mouth to anaesthetised dogs; portal venous and systemic blood concentration; format: in vivo; conditions: for Propranolol Concentration, Systemic: systemic blood
Description: Experiments were undertaken in four dogs under general anaesthesia induced with halothane and then maintained with ketamine and xylazine. Cardiovascular status was monitored by measurement of heart rate and blood pressure and by measurement of arterial blood gases. Ventilation was assisted to maintain blood gases within physiological limits. A catheter was placed in the femoral artery to permit sampling of arterial blood. After laparotomy, a catheter was placed in a mesenteric vein and advanced to the portal vein to permit sampling of portal venous blood samples.
Propranolol was administered by mouth on the evening before, and then again one hour before the study as a dose of 40 mg in granules taken from a 160 mg slow release formulation of propranolol (Cardinol; Pacific Pharmaceuticals New Zealand). […] The animals were sacrificed at the end of he experiment.
The concentration in systemic blood was generally below the level of detection (<5 ug/ml).

[4] = in vivo; cited from earlier work

CC(C)c1c(C(=O)Nc2ccccc2)c(-c2ccccc2)c(-c2ccc(F)cc2)n1CC[C@@H](O)C[C@@H](O)CC(=O)O [Atorvastatin]
transient global amnesia cases within Australia [1]: 7 cases

COCc1c(C(C)C)nc(C(C)C)c(/C=C/[C@@H](O)C[C@@H](O)CC(=O)O)c1-c1ccc(F)cc1 [Cerivastatin, cerivastatin]
implication in statin-associated rhabdomyolysis reports [2]: most commonly implicated statin

CC[C@H](C)C(=O)O[C@H]1C[C@H](O)C=C2C=C[C@H](C)[C@H](CC[C@@H](O)C[C@@H](O)CC(=O)O)[C@H]21 [Pravastatin]
transient global amnesia cases within Australia [1]: 3 cases

CC(C)NCC(O)COc1cccc2ccccc12 (centres unmarked) [Propranolol, propranolol]
concentration at 60 min ([3]; dog, portal venous whole blood, oral, 40 mg, portal vein, 60 min, individual dogs 1-4): 5800 ng/mL
concentration in systemic blood ([3]; generally below the level of detection, summary of the table): < 5000 ng/mL
Propranolol Concentration, Portal Vein ([3]; portal vein, 30 min, individual dogs 1-4): 11.5 µg/mL and 11.8 µg/mL and 13 µg/mL and 2 µg/mL
Propranolol Concentration, Portal Vein ([3]; portal vein, 60 min, individual dogs 1-4): 10.9 µg/mL and 10 µg/mL and 6 µg/mL
Propranolol Concentration, Portal Vein ([3]; portal vein, 90 min, individual dogs 1-4): 22 µg/mL and 14.4 µg/mL and 10 µg/mL and 5 µg/mL
Propranolol Concentration, Portal Vein ([3]; portal vein, 120 min, individual dogs 1-4): <5 µg/mL and 13 µg/mL and 4 µg/mL
Propranolol Concentration, Portal Vein ([3]; portal vein, Baseline, 40 mg slow-release granules by mouth evening before and one hour before study, individual dogs 1-4): <5 µg/mL and 28.8 µg/mL and 21 µg/mL and 36 µg/mL
portal versus systemic concentration (liver selectivity) ([3]; small series in dogs, conclusion in words): concentration gradients between portal and systemic vessels
Propranolol Concentration, Systemic ([3]; 30 min, individual dogs 1-4): <5 ug/ml (2×) and 2 ug/ml and <2 ug/ml
Propranolol Concentration, Systemic ([3]; 60 min, individual dogs 1-4): 6.2 µg/mL and <5 µg/mL and 2 µg/mL and <2 µg/mL
Propranolol Concentration, Systemic ([3]; 90 min, individual dogs 1-4): 5.8 µg/mL and <5 µg/mL and 2 µg/mL and <2 µg/mL
Propranolol Concentration, Systemic ([3]; 120 min, individual dogs 1-4): <5 µg/mL and 2 µg/mL and <2 µg/mL
Propranolol Concentration, Systemic ([3]; Baseline, individual dogs 1-4): <5 ug/ml (2×) and 3 ug/ml and <2 ug/ml

CCC(C)(C)C(=O)O[C@H]1C[C@@H](C)C=C2C=C[C@H](C)[C@H](CC[C@@H]3C[C@@H](O)CC(=O)O3)[C@H]21 [simvastatin]
half-life [4]: 42 to 240 min
